Structures are written as SMILES.

Experiment [1] can be described thus: Selectivity ratio of Ki for rat sigma2 receptor to Ki for guinea pig sigma1 receptor.
Experiment [2] deals with Sigma non-opioid intracellular receptor 1 (Cavia porcellus, UniProt Q60492). In words: Displacement of [3H](+)-pentazocine from sigma1 receptor in guinea pig brain homogenate. Type of experiment: tissue-based. (In a radioligand displacement assay an active substance lowers the binding of a labelled ligand.)
The nature of experiment [3]: Displacement of [3H]DTG from sigma2 receptor in rat liver homogenate in presence of (+)-pentazocine. Type of experiment: tissue-based.
A short description of experiment [4]: Binding affinity to sigma2 receptor. On the set-up: species or system Homo sapiens.
Experiment [5] can be described thus: Binding affinity to sigma1 receptor.
Experiment [6] concerns the target Sigma non-opioid intracellular receptor 1 (Rattus norvegicus, UniProt Q9R0C9). In words: biochemical.
Description: Displacement of [3H](+)-pentazocine from sigma1 receptor in rat brain homogenate after 120 mins
Experiment [7] can be described thus: Binding affinity to sigma2 receptor in guinea pig brain homogenate. Type of experiment: tissue-based, Cavia porcellus.

Chain of Sigma non-opioid intracellular receptor 1 (Cavia porcellus, UniProt Q60492) (Q60492 whole entry): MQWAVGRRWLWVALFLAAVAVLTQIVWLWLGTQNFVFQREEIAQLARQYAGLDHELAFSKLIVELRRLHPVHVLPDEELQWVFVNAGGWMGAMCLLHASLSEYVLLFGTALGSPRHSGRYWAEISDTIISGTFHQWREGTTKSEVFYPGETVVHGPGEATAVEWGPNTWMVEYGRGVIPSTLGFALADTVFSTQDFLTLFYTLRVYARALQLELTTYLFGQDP
Chain of Sigma non-opioid intracellular receptor 1 (Rattus norvegicus, UniProt Q9R0C9) (Q9R0C9 whole entry): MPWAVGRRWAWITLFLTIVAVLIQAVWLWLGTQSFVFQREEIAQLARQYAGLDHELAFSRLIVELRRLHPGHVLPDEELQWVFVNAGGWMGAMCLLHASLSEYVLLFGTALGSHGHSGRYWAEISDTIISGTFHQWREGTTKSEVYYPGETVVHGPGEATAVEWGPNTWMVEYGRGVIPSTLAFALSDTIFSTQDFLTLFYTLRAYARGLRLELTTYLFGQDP

As to `COc1ccc(CN2CCCN(Cc3cc4ccccc4o3)CC2)cc1`, in experiment [1], the Ratio Ki amounted to 220. For the same compound, the Ki – broadly, a measure of affinity in units of concentration, obtained from inhibition or displacement – stood at 0.54 nM in experiment [2] and 119 nM in experiment [3].

As to `COc1ccc(CN2CCN(Cc3cc4ccccc4o3)CC2)cc1`, in experiment [1], the Ratio Ki turned out to be 929. Moreover, the Ki came to 0.18 nM in experiment [2] and 167 nM in experiment [3].

As to `COc1cccc(CCN2CCN(CCCc3ccccc3)CC2)c1`, the Ki is 10.2 nM in experiment [4] and 1.4 nM in experiment [5].

`COc1cccc2c1CCCC2CCCN1CCN(Cc2ccccc2)CC1` (stereo unspecified) gave a Ki in experiment [4] of 1870 nM.

On to `CCCOc1ccc(CN2CCN(Cc3cc4ccccc4o3)CC2)cc1`, for which, in experiment [1], the Ratio Ki is 143. For the same compound, the results for the inhibitory constant (Ki) in experiment [2] and in experiment [3] were 10.3 nM and 1470 nM, respectively.

Turning to `FCCCOc1ccc(CN2CCN(Cc3cc4ccccc4o3)C2)cc1`, the Ratio Ki in experiment [1] came to 175. Besides, the Ki in experiment [2] turned out to be 20.8 nM; in experiment [3] it was 3640 nM.

`FCCCOc1ccc(CN2CCN(Cc3cc4ccccc4o3)CC2)cc1`: the Ratio Ki in experiment [1] was determined as 842. Moreover, the Ki in experiment [2] is 1.61 nM; in experiment [3], 1360 nM.

With `CCOc1ccc(CN2CCCN(Cc3cc4ccccc4o3)CC2)cc1`, the Ratio Ki in experiment [1] was 1500. The figures for the inhibition constant (Ki) in experiment [2] and in experiment [3] were 0.194 nM and 292 nM, respectively.

Consider `COc1ccc(CN2CCN(Cc3cc4ccccc4o3)C2)cc1`, for which, in experiment [1], the Ratio Ki is 58. In addition, the Ki was determined as 43 nM in experiment [2] and 2500 nM in experiment [3].

Consider `FCCOc1ccc(CN2CCCN(Cc3cc4ccccc4o3)CC2)cc1`, for which the Ratio Ki in experiment [1] was 881. The figures for the Ki in experiment [2] and in experiment [3] were 0.1 nM and 88.1 nM, respectively.

Consider `CCCOc1ccc(CN2CCN(Cc3cc4ccccc4o3)C2)cc1`, for which, in experiment [1], the Ratio Ki stood at 121. The Ki in experiment [2] was 53.5 nM; in experiment [3], 6470 nM.

Take `FCCOc1ccc(CN2CCN(Cc3cc4ccccc4o3)C2)cc1`: in experiment [1], the Ratio Ki came to 237. Moreover, the Ki in experiment [2] was determined as 6.45 nM; in experiment [3], 1530 nM.

In experiment [6], `S=c1sc2ccccc2n1CCCCN1CCN(C2CCCCC2)CC1` returned a Ki of 1.3 nM.

Take `CCCOc1ccc(CN2CCCN(Cc3cc4ccccc4o3)CC2)cc1`: the Ratio Ki in experiment [1] was found to be 4600. The Ki in experiment [2] was 0.152 nM; in experiment [3], 700 nM.

For the compound `c1ccc(CN2CCN(Cc3ccccc3)CC2)cc1`, the Ki in experiment [4] worked out at 1270 nM.

Turning to `CCOc1ccc(CN2CCN(Cc3cc4ccccc4o3)C2)cc1`, the Ratio Ki in experiment [1] was 123. In addition, the Ki is 19.3 nM in experiment [2] and 2380 nM in experiment [3].

Take `FCCOc1ccc(CN2CCN(Cc3cc4ccccc4o3)CC2)cc1`: the Ratio Ki in experiment [1] was found to be 16100. The Ki was 0.05 nM in experiment [2] and 807 nM in experiment [3].

With `CCOc1ccc(CN2CCN(Cc3cc4ccccc4o3)CC2)cc1`, the Ratio Ki in experiment [1] stood at 6190. Also, the results for the Ki in experiment [2] and in experiment [3] were 0.18 nM and 1120 nM, respectively.

On to `FCCCOc1ccc(CN2CCCN(Cc3cc4ccccc4o3)CC2)cc1`, for which, in experiment [1], the Ratio Ki amounted to 11500. Besides, the Ki in experiment [2] came out at 0.12 nM; in experiment [3] it was 1380 nM.

`COc1ccc(CCN2CCN(CCCc3ccccc3)CC2)cc1OC` [[11C]SA4503] returned a Ki in experiment [7] of 63 nM.

The values above are taken from ChEMBL document CHEMBL2069270, “Exploration of ring size in a series of cyclic vicinal diamines with σ₁ receptor affinity” (Bioorg Med Chem Lett, 2012).
